Results: patent publication US7074743B1, “Herbicidal composition comprising 4-iodo-2-[3-(4-methoxy-6-methyl-1,3,5-triazin-2-yl)ureidosulfonyl]benzoic esters” (priority 1995, dated 2006)

Experiments:
Assay type in all cases: in vivo
[1] = system: Centaurea cyanus; assay: Herbicidal action on CENCY, visual scoring vs untreated, post-emergence 2-4 leaf stage
Protocol: (§1) The examples given below were performed in the greenhouse and, in some cases, in field trials.
(§2) The herbicides, or combinations, were applied in cereals after the weeds had emerged naturally using plot sprayers. After application, the results, such as damage to the crop plants and effect on broad-leaved weeds/grass weeds were assessed by means of visual scoring. The herbicidal action was assessed qualitatively and quantitatively by comparing untreated and treated plots on the basis of the effect on plant growth and the development of chloroses and necroses down to the complete destruction of the weeds (0–100%). The application was effected when the crop plants and weeds were in the 2–4 leaf stage. The test was evaluated approximately 4 weeks after application.
(§3) In the greenhouse experiments, the crop plants and broadleaved weeds/grass weeds were grown in No. 13 pots and treated in the 2–4 leaf stage. The pots were subsequently placed in the greenhouse under good growth conditions (temperature, atmospheric humidity, water supply).
(§4) The assessments were carried out similarly to those in the field trials, i.e. visual scoring of the treated plants in comparison with untreated control variants. These assessments were carried out 3 weeks after applying the test preparations and their combinations. The experiments had been set up in two replications.
(§5) To assess the combination effects, the activities of the individual components were added and compared with the activity of the mixtures in equal doses. It was frequently observed that the efficacies of the combinations exceeded the total of the individual activities.
(§6) In cases with less clear effects, the expected value was calculated using Colby's formula and compared with the empirically determined result. The calculated efficacy of a combination which is expected in theory is determined is using S.R. Colby's formula: “Calculation of synergistic and antagonistic responses of herbicide combinations”, Weeds 15 (1967), pages 20 to 22.
(§7) [formula] where • X=% damage caused by herbicide A at a rate of ×kg a.i./ha; • Y=% damage caused by herbicide B at a rate of y kg a.i./ha; • Z=% damage caused by a further herbicide C at a rate of z kg a.i./ha; • E=expected value, i.e. expected damage caused by herbicides A+B (or A+B+C) at x+y (or x+y+z) kg a.i./ha.
(§8) Synergistic effects were assumed to be when the empirical value exceeded the expected value. In the case of combinations with individual components with the same active substances, comparisons via the total formula were also possible.

[2] = system: Apera spica venti; assay: Herbicidal action on APESV, visual scoring vs untreated, post-emergence 2-4 leaf stage; conditions: Table 1
Protocol: as §1, §2, §3, §4, §5, §6, §7, §8

[3] = system: Secale cereale; assay: Damage to crop plant SECCW, visual scoring vs untreated
Protocol: as §1, §2, §3, §4

[4] = system: Lolium multiflorum; assay: Herbicidal action on LOLMU, visual scoring vs untreated, post-emergence 2-4 leaf stage
Protocol: as §1, §2, §3, §4, §5, §6, §7, §8

[5] = system: Fallopia convolvulus; assay: Herbicidal action on FALCO, visual scoring vs untreated, post-emergence 2-4 leaf stage
Protocol: as §1, §2, §3, §4, §5, §6, §7, §8

[6] = system: Avena fatua; assay: Herbicidal action on AVEFA, visual scoring vs untreated, post-emergence 2-4 leaf stage; conditions: Table 11
Protocol: as §1, §2, §3, §4, §5, §6, §7, §8

[7] = system: Gallium aparine; assay: Herbicidal action on GALAP, visual scoring vs untreated, post-emergence 2-4 leaf stage
Protocol: as §1, §2, §3, §4, §5, §6, §7, §8

[8] = system: Phalaris canariensis; assay: Herbicidal action on PHACA, visual scoring vs untreated, post-emergence 2-4 leaf stage (greenhouse / field trials)
Protocol: as §1, §2, §3, §4, §5, §6, §7, §8

[9] = system: Viola arvensis; assay: Herbicidal action on VIOAR, visual scoring vs untreated, post-emergence 2-4 leaf stage; conditions: Table 7
Protocol: as §1, §2, §3, §4, §5, §6, §7, §8

[10] = system: Mercurialis annua; assay: Herbicidal action on MERAN, visual scoring vs untreated, post-emergence 2-4 leaf stage; conditions: Table 11
Protocol: as §1, §2, §3, §4, §5, §6, §7, §8

[11] = system: Abuthilon theophrastis; assay: Herbicidal action on ABUTHE, visual scoring vs untreated, post-emergence 2-4 leaf stage; conditions: Table 12; 2.5 g of ai/ha
Protocol: as §1, §2
In the greenhouse experiments, the crop plants and broadleaved weeds/grass weeds were grown in No. 13 pots and treated in the 2–4 leaf stage. […]
In cases with less clear effects, the expected value was calculated using Colby's formula and compared with the empirically determined result. The calculated efficacy of a combination which is expected in theory is determined is using S.R. Colby's formula: “Calculation of synergistic and antagonistic responses of herbicide combinations”, Weeds 15 (1967), pages 20 to 22. […]

[12] = system: Triticum aestivum; assay: Damage to crop plant TRZAW, visual scoring vs untreated
Protocol: as §1, §2, §3, §4

COC(=O)c1ccc(I)cc1S(=O)(=O)NC(=O)Nc1nc(C)nc(OC)n1.[Na] [A), sodium salt of methyl 4-iodo-2-[3-(4-methoxy-6-methyl-1,3,5-triazin-2-yl)ureidosulfonyl]benzoate]
CENCY % control ([1]; Table 6, 5 g of a.i./ha): 0%
CENCY % control ([1]; Table 6, 10 g of a.i./ha): 30%
CENCY % control ([1]; Table 6, 15 g of a.i./ha): 60%
CENCY % control ([1]; Table 9, 2.5 g of a.i./ha): 30%
CENCY % control ([1]; Table 9, 5 g of a.i./ha): 43%
CENCY % control ([1]; Table 9, 10 g of a.i./ha): 58%
CENCY % control ([1]; Table 9, 20 g of a.i./ha): 78%
CENCY % control ([1]; Table 10, 5 g of a.i./ha): 0%
CENCY % control ([1]; Table 10, 10 g of a.i./ha): 30%
CENCY % control ([1]; Table 10, 15 g of a.i./ha): 60%
APESV % control ([2]; 3 g of a.i./ha): 85%
APESV % control ([2]; 5 g of a.i./ha): 93%
APESV % control ([2]; 10 g of a.i./ha): 97%
APESV % control ([2]; 20 g of a.i./ha): 98%
SECCW % damage ([3]; Table 6, 5 g of a.i./ha): 0%
SECCW % damage ([3]; Table 6, 10 g of a.i./ha): 0%
SECCW % damage ([3]; Table 6, 15 g of a.i./ha): 5%
SECCW % damage ([3]; Table 10, 5 g of a.i./ha): 0%
SECCW % damage ([3]; Table 10, 10 g of a.i./ha): 0%
SECCW % damage ([3]; Table 10, 15 g of a.i./ha): 5%
LOLMU % control ([4]; Table 2, 3 g of a.i./ha): 0%
LOLMU % control ([4]; Table 2, 5 g of a.i./ha): 5%
LOLMU % control ([4]; Table 2, 10 g of a.i./ha): 10%
LOLMU % control ([4]; Table 2, 20 g of a.i./ha): 48%
LOLMU % control ([4]; Table 3, 3 g of a.i./ha): 0%
LOLMU % control ([4]; Table 3, 5 g of a.i./ha): 5%
LOLMU % control ([4]; Table 3, 10 g of a.i./ha): 10%
LOLMU % control ([4]; Table 3, 20 g of a.i./ha): 48%
LOLMU % control ([4]; Table 5, 2.5 g of a.i./ha): 68%
LOLMU % control ([4]; Table 5, 5 g of a.i./ha): 75%
LOLMU % control ([4]; Table 5, 10 g of a.i./ha): 83%
FALCO % control ([5]; Table 5, 2.5 g of a.i./ha): 73%
FALCO % control ([5]; Table 5, 5 g of a.i./ha): 85%
FALCO % control ([5]; Table 5, 10 g of a.i./ha): 88%
FALCO % control ([5]; Table 5, 20 g of a.i./ha): 97%
FALCO % control ([5]; Table 5, 40 g of a.i./ha): 98%
FALCO % control ([5]; Table 5, 80 g of a.i./ha): 99%
FALCO % control ([5]; Table 5, 160 g of a.i./ha): 99%
FALCO % control ([5]; Table 9, 2.5 g of a.i./ha): 73%
FALCO % control ([5]; Table 9, 5 g of a.i./ha): 85%
FALCO % control ([5]; Table 9, 10 g of a.i./ha): 88%
FALCO % control ([5]; Table 9, 20 g of a.i./ha): 97%
FALCO % control ([5]; Table 9, 40 g of a.i./ha): 98%
AVEFA % control ([6]; 5 g of a.i./ha): 60%
AVEFA % control ([6]; 10 g of a.i./ha): 80%
GALAP % control ([7]; Table 7, 2.5 g of a.i./ha): 35%
GALAP % control ([7]; Table 7, 5 g of a.i./ha): 58%
GALAP % control ([7]; Table 7, 10 g of a.i./ha): 60%
GALAP % control ([7]; Table 7, 20 g of a.i./ha): 99%
GALAP % control ([7]; Table 11, 5 g of a.i./ha): 75%
GALAP % control ([7]; Table 11, 10 g of a.i./ha): 98%
PHACA % control ([8]; Table 1, 3 g of a.i./ha): 0%
PHACA % control ([8]; Table 1, 5 g of a.i./ha): 15%
PHACA % control ([8]; Table 1, 10 g of a.i./ha): 35%
PHACA % control ([8]; Table 1, 20 g of a.i./ha): 53%
PHACA % control ([8]; Table 2, 3 g of a.i./ha): 0%
PHACA % control ([8]; Table 2, 5 g of a.i./ha): 15%
PHACA % control ([8]; Table 2, 10 g of a.i./ha): 35%
PHACA % control ([8]; Table 2, 20 g of a.i./ha): 53%
PHACA % control ([8]; Table 3, 3 g of a.i./ha): 0%
PHACA % control ([8]; Table 3, 5 g of a.i./ha): 15%
PHACA % control ([8]; Table 3, 10 g of a.i./ha): 35%
PHACA % control ([8]; Table 3, 20 g of a.i./ha): 53%
VIOAR % control ([9]; 2.5 g of a.i./ha): 58%
VIOAR % control ([9]; 5 g of a.i./ha): 75%
VIOAR % control ([9]; 10 g of a.i./ha): 95%
VIOAR % control ([9]; 20 g of a.i./ha): 98%
MERAN % control ([10]; 5 g of a.i./ha): 70%
MERAN % control ([10]; 10 g of a.i./ha): 94%
ABUTHE % control [11]: 10%
TRZAW % damage ([12]; Table 1, 3 g of a.i./ha): 0%
TRZAW % damage ([12]; Table 1, 5 g of a.i./ha): 0%
TRZAW % damage ([12]; Table 1, 10 g of a.i./ha): 0%
TRZAW % damage ([12]; Table 1, 20 g of a.i./ha): 0%
TRZAW % damage ([12]; Table 2, 3 g of a.i./ha): 0%
TRZAW % damage ([12]; Table 2, 5 g of a.i./ha): 0%
TRZAW % damage ([12]; Table 2, 10 g of a.i./ha): 0%
TRZAW % damage ([12]; Table 2, 20 g of a.i./ha): 0%
TRZAW % damage ([12]; Table 3, 3 g of a.i./ha): 0%
TRZAW % damage ([12]; Table 3, 5 g of a.i./ha): 0%
TRZAW % damage ([12]; Table 3, 10 g of a.i./ha): 0%
TRZAW % damage ([12]; Table 3, 20 g of a.i./ha): 0%
TRZAW % damage ([12]; Table 5, 2.5 g of a.i./ha): 0%
TRZAW % damage ([12]; Table 5, 5 g of a.i./ha): 0%
TRZAW % damage ([12]; Table 5, 10 g of a.i./ha): 0%
TRZAW % damage ([12]; Table 5, 20 g of a.i./ha): 10%
TRZAW % damage ([12]; Table 5, 40 g of a.i./ha): 15%
TRZAW % damage ([12]; Table 5, 80 g of a.i./ha): 18%
TRZAW % damage ([12]; Table 5, 160 g of a.i./ha): 28%
TRZAW % damage ([12]; Table 7, 2.5 g of a.i./ha): 0%
TRZAW % damage ([12]; Table 7, 5 g of a.i./ha): 0%
TRZAW % damage ([12]; Table 7, 10 g of a.i./ha): 2%
TRZAW % damage ([12]; Table 7, 20 g of a.i./ha): 10%
TRZAW % damage ([12]; Table 9, 2.5 g of a.i./ha): 0%
TRZAW % damage ([12]; Table 9, 5 g of a.i./ha): 0%
TRZAW % damage ([12]; Table 9, 10 g of a.i./ha): 2%
TRZAW % damage ([12]; Table 9, 20 g of a.i./ha): 10%
TRZAW % damage ([12]; Table 9, 40 g of a.i./ha): 15%
